According to patent publication US10167507B2, “Metabolic diseases-related odorant receptor genes and use thereof” (INDUSTRY-ACADEMIC COOPERATION FOUNDATION, YONSEI UNIVERSITY, priority 2010, dated 2019):

Experiments:
[1] = system: obesity and metabolic diseases-related genes in visceral fat tissue; assay: RT-PCR of obesity and metabolic diseases-related genes, visceral fat tissue; type: in vivo, mouse; settings: odor component-supplemented group to the HFD control group
Description: (§1) After adding 1 mL of Trizol agent (Invitrogen, USA) per 0.1 g of visceral fat or liver tissues, the mixture was homogenized and centrifuged at 12,000×g for 10 min at 4° C. The supernatant was transferred to a new tube and 200 μl of chloroform was added to the tube, followed by vortexing. The same procedure was repeated twice and then the supernatant was transferred to a new tube, followed by addition of isopropanol and the supernatant at 1:1 ratio. The mixture was vigorously shaken 10 times and then incubated for 10 min at room temperature, followed by centrifugation at 12,000×g for 10 min at 4° C. to remove the supernatant. After adding 1 mL of 70% ethanol to the remaining pellet, it was centrifuged at 7,500×g for 5 min at 4° C. After removing the ethanol, the RNA pellet contained in the tube was dried for 5 min at 4° C. and dissolved in nuclease-free water. The RNA sample concentration was measured at a wavelength of 260 nm and 280 nm using a UV/VIS spectrophotometer (Beckman coulter, DU730) and the integrity of RNA sample was verified by agarose gel electrophoresis. The RNA sample obtained from the visceral fat or liver tissues was trasnscribed using oligo dT primer and reverse transcriptase (GIBCO BRL, Gaithersburg, Md., USA) to synthesize cDNA. The PCR amplification was performed using the cDNA as templates and primers complementary to cDNA [NT] flanking sequence. 1 μl of the amplified products were resolved on agarose gel electrophoresis to verify DNA band.

[2] = system: olfactory receptors in liver tissue; assay: OligoDNA microarray, liver tissue of HFD mice fed odor components; type: in vivo, mouse
Description: (§2) The obesity-inducing control diet used in the test was high-fat diet (HFD: 40% fat calorie, 17 g lard+3% corn oil/100 g diet). Diets supplemented with an odor component had the same composition as HFD, except that each of various types of odor components (indol-3-carbinol, oleuropein, cedryl acetate, α-cedrene and piperine) having anti-obesity efficacy was contained in 0.02-0.05% concentration. Indo)-3-carbinol, oleuropein, cedryl acetate, a-cedrene and piperine were purchased from Sigma-Aldrich.
(§3) After adding Trizol agent to visceral fat or liver tissue, the mixture was homogenized and centrifuged at 12,000×g for 10 min at 4° C. The supernatant was transferred to a new tube to remove fat layer. Then, 200 μl of chloroform was added to the tube, followed by vortexing. The same procedure was repeated twice and then the supernatant was transferred to a new tube, followed by addition of isopropanol and the supernatant at 1:1 ratio. The mixture was vigorously shaken 10 times and then incubated for 10 min at room temperature, followed by centrifugation at 12,000×g for 10 min at 4° C. to remove the supernatant. After adding 1 mL of 70% ethanol to the remaining pellet, it was centrifuged at 7,500×g for 5 min at 4° C. After removing the ethanol, the RNA pellet contained in the tube was dried for 5 min at 4° C. and dissolved in nuclease-free water. The RNA sample concentration was measured at a wavelength of 260 nm and 280 nm using a UV/VIS spectrophotometer (Beckman coulter, DU730) and the integrity of RNA sample was verified by agarose gel electrophoresis.
(§4) DNA microarry analysis using RNAs of visceral fat and liver tissue was conducted by GENOCHECK (CO., LTD.). RNA samples were pooled from 10 mice in each experimental group and subjected to microarray experiments in triplicate for the test of reproducibility. NimbleGen Mouse Whole Oligo 12-plex chip used in this experiment was prepared by triplicating 42,576 genes using Mouse Genome Build 8 as database. In NimbleGen mouse Whole Oligo 12-plex chip, 137,090 spots excluded control group gene were spotted by 16 μm×16 μm size in 17.4 mm×13 mm size. 42,576 oligo included […] genes which are known their functions and 5,431 transcripts and EST sequences which are unknown their functions. 10-50 μg of total RNA was added in oligo-dT primer, reverse transcriptase, dNTP, Cy3-dUTP and Cy5-dUTP, and reverse-transcripted according to the kit manufacturer's recommendations. The resultant was purified using cartridge, dried and dissolved in hybridization buffer solution (30 μL). The microarray was placed in hybridization cassette, heated at 95-100° C. for 5 min, mixed independently to each of RNA labeled with Cy3 and Cy5, and hybridized at 45° C. for 18 hrs. The slide was washed twice in solution containing 1×SSC and 0.1% SDS for 5 min, washed in 1×SSC for 5 min and dried to analyze.
(§5) The profile for olfactory receptors in which the expression was regulated by more than 2-fold change due to intake of odor components at each tissue was shown in Tables 5. As a result, it was determined that various types of odor components having anti-obesity efficacy regulated a plurality of olfactory receptors in peripheral tissues.

[3] = system: obesity and metabolic diseases-related genes in liver tissue; assay: RT-PCR of obesity and metabolic diseases-related genes, liver tissue; type: in vivo, mouse; settings: odor component-supplemented group to the HFD control group
Description: as §1

[4] = system: olfactory receptors in visceral fat and liver tissues; assay: OligoDNA microarray, visceral fat and liver tissues of HFD mice fed odor components (tissue not separated in text); type: in vivo; settings: supplemented to mouse fed high-fat diet for 10 weeks
Description: as §2, §3, §4, §5

[5] = system: AKT (v-akt murine thymoma viral oncogene); assay: Western blotting, protein phosphorylation of AKT; type: in vivo, mouse; settings: for AKT phosphorylation, increase (change rate): odor component-supplemented group to the HFD control group
Description: (§6) A certain amount of visceral fat or liver tissues in mortar was homogenized with liquid nitrogen and cell lysis buffer. The mixture was transferred to a new tube, followed by vortexing. After centrifugation at 13,000×g for 20 min at 4° C., the middle layer of the tube was obtained and proteins were quantified by Bradford method. 50 μg of protein was electrophorized to SDS polyacrylamide gel, followed by electroblotting to PVDF hyper film. The protein was reacted using an appropriate antibody for the protein and detected by ECL, whereby insulin resistance, adipocyte differentiation, lipid metabolism or energy consumption-related mechanism of phytochemical components was investigated in the protein level.
(§7) In order to verify this, protein phosphorylations of HSL (hormone sensitive lipase), CREB (cAMP-responsive element binding protein) and AKT (v-akt murine thymoma viral oncogene) were evaluated by western blotting analysis.

[6] = system: CREB (cAMP-responsive element binding protein); assay: Western blotting, protein phosphorylation of CREB; type: in vivo, mouse; settings: for CREB phosphorylation, increase (change rate): odor component-supplemented group to the HFD control group
Description: as §6, §7

[7] = system: HSL (hormone sensitive lipase); assay: Western blotting, protein phosphorylation of HSL; type: in vivo, mouse; settings: for HSL phosphorylation, increase (change rate): odor component-supplemented group to the HFD control group
Description: as §6, §7

[8] = system: olfactory receptors in visceral fat tissue; assay: OligoDNA microarray, visceral fat tissue of HFD mice fed odor components; type: in vivo, mouse
Description: DNA microarry analysis using RNAs of visceral fat and liver tissue was conducted by GENOCHECK (CO., LTD.). RNA samples were pooled from 10 mice in each experimental group and subjected to microarray experiments in triplicate for the test of reproducibility. NimbleGen Mouse Whole Oligo 12-plex chip used in this experiment was prepared by triplicating 42,576 genes using Mouse Genome Build 8 as database. In NimbleGen mouse Whole Oligo 12-plex chip, 137,090 spots excluded control group gene were spotted by 16 μm×16 μm size in 17.4 mm×13 mm size. 42,576 oligo included 137,145 genes which are known their functions and 5,431 transcripts and EST sequences which are unknown their functions. 10-50 μg of total RNA was added in oligo-dT primer, reverse transcriptase, dNTP, Cy3-dUTP and Cy5-dUTP, and reverse-transcripted according to the kit manufacturer's recommendations. The resultant was purified using cartridge, dried and dissolved in hybridization buffer solution (30 μL). The microarray was placed in hybridization cassette, heated at 95-100° C. for 5 min, mixed independently to each of RNA labeled with Cy3 and Cy5, and hybridized at 45° C. for 18 hrs. The slide was washed twice in solution containing 1×SSC and 0.1% SDS for 5 min, washed in 1×SSC for 5 min and dried to analyze.

[9] = supplemented to HFD-fed mouse 10 weeks
[10] = western blotting, compared to the HFD control group

For `OCc1c[nH]c2ccccc12` [indol-3-carbinol], the “C/EBPα gene expression, decrease (change rate)” value [1] was 11% decrease^a), the “CPT1 gene expression, increase (change rate)” value [1] was 25% increase^ and the “FAS gene expression, decrease (change rate)” value [1] was 56% decrease. For the same compound, the “IL-6 gene expression, decrease (change rate)” value [1] was 76% decrease, the “PGC1α gene expression, increase (change rate)” value [1] was 120% increase ^ and the “PPARγ2 gene expression, decrease (change rate)” value [1] was 20% decrease. The “SIRT1 gene expression, increase (change rate)” value [1] was 45% increase^, the “TNFα gene expression, decrease (change rate)” value [1] was 23% decrease and the “UCP1 gene expression, increase (change rate)” value [1] was 210% increase ^. The “UCP3 gene expression, increase (change rate)” value [1] was 72% increase^, the “aP2 gene expression, decrease (change rate)” value [1] was 44% decrease and the “expression of olfactory receptor 1045” value [2] was “decreased”. The “Olfr290 expression fold change to HFD group” value [2, 9] was 2.11, the “Olfr1045 expression fold change to HFD group” value [2, 9] was 0.45 and the “C/EBPα gene expression, decrease (change rate)” value [3] was 25% decrease. The “CPT1 gene expression, increase (change rate)” value [3] was 33% increase^, the “FAS gene expression, decrease (change rate)” value [3] was 27% decrease and the “IL-6 gene expression, decrease (change rate)” value [3] was 45% decrease. For the same compound, the “PPARγ2 gene expression, decrease (change rate)” value [3] was 36% decrease, the “TNFα gene expression, decrease (change rate)” value [3] was 33% decrease and the “aP2 gene expression, decrease (change rate)” value [3] was 29% decrease. The “expression of olfactory receptor 16 decreased” value [4] was “more than 2 fold change”, the “expression of olfactory receptor 116 increased” value [4] was “more than 2 fold change” and the “expression of olfactory receptor 178 increased” value [4] was “more than 2 fold change”. For the same compound, the “expression of olfactory receptor 196 decreased” value [4] was “more than 2 fold change”, the “expression of olfactory receptor 259 decreased” value [4] was “more than 2 fold change” and the “expression of olfactory receptor 290 increased” value [4] was “more than 2 fold change”. For the same compound, the “expression of olfactory receptor 380 increased” value [4] was “more than 2 fold change”, the “expression of olfactory receptor 466 decreased” value [4] was “more than 2 fold change” and the “expression of olfactory receptor 686 decreased” value [4] was “more than 2 fold change”. The “expression of olfactory receptor 909 increased” value [4] was “more than 2 fold change”, the “expression of olfactory receptor 972 decreased” value [4] was “more than 2 fold change” and the “expression of olfactory receptor 1045 decreased” value [4] was “more than 2 fold change”. For the same compound, the “expression of olfactory receptor 1093 decreased” value [4] was “more than 2 fold change”, the “expression of olfactory receptor 1153 increased” value [4] was “more than 2 fold change” and the “expression of olfactory receptor 1165 decreased” value [4] was “more than 2 fold change”. For the same compound, the “expression of olfactory receptor 1216 decreased” value [4] was “more than 2 fold change”, the “expression of olfactory receptor 1329 decreased” value [4] was “more than 2 fold change” and the “expression of olfactory receptor 1337 decreased” value [4] was “more than 2 fold change”. The “expression of olfactory receptor 1462 increased” value [4] was “more than 2 fold change”, the “AKT phosphorylation, increase (change rate)” value [5] was 40% increase and the “phosphorylation of AKT” value [5, 10] was “significantly increased”. The “CREB phosphorylation, increase (change rate)” value [6] was 45% increase, the “phosphorylation of CREB” value [6, 10] was “significantly increased” and the “HSL phosphorylation, increase (change rate)” value [7] was 31% increase ^a). For the same compound, the “phosphorylation of HSL” value [7, 10] was “significantly increased”, the “expression of olfactory receptor 380” value [8] was “increased” and the “expression of olfactory receptor 1165” value [8] was “decreased”. For the same compound, the “Olfr380 expression fold change to HFD group” value [8, 9] was 2.2, the “Olfr1165 expression fold change to HFD group” value [8, 9] was 0.39 and the “Olfr1462 expression fold change to HFD group” value [8, 9] was 2.26.
For `O=C(/C=C/C=C/c1ccc2c(c1)OCO2)N1CCCCC1` [piperine], the “C/EBPα gene expression, decrease (change rate)” value [1] was 35% decrease, the “CPT1 gene expression, increase (change rate)” value [1] was 75% increase^ and the “FAS gene expression, decrease (change rate)” value [1] was 52% decrease. The “IL-6 gene expression, decrease (change rate)” value [1] was 83% decrease, the “PGC1α gene expression, increase (change rate)” value [1] was 324% increase ^ and the “PPARγ2 gene expression, decrease (change rate)” value [1] was 30% decrease. The “SIRT1 gene expression, increase (change rate)” value [1] was 36% increase^, the “TNFα gene expression, decrease (change rate)” value [1] was 75% decrease and the “UCP1 gene expression, increase (change rate)” value [1] was 905% increase ^. The “UCP3 gene expression, increase (change rate)” value [1] was 75% increase^, the “aP2 gene expression, decrease (change rate)” value [1] was 60% decrease and the “Olfr38 expression fold change to HFD group” value [2, 9] was 3.93. For the same compound, the “Olfr77 expression fold change to HFD group” value [2, 9] was 0.42, the “Olfr520 expression fold change to HFD group” value [2, 9] was 2.24 and the “Olfr878 expression fold change to HFD group” value [2, 9] was 5.56. The “Olfr1462 expression fold change to HFD group” value [2, 9] was 0.49, the “C/EBPα gene expression, decrease (change rate)” value [3] was 8% decrease and the “CPT1 gene expression, increase (change rate)” value [3] was 44% increase^. For the same compound, the “FAS gene expression, decrease (change rate)” value [3] was 67% decrease, the “IL-6 gene expression, decrease (change rate)” value [3] was 71% decrease and the “PPARγ2 gene expression, decrease (change rate)” value [3] was 44% decrease. For the same compound, the “TNFα gene expression, decrease (change rate)” value [3] was 60% decrease, the “aP2 gene expression, decrease (change rate)” value [3] was 55% decrease and the “expression of olfactory receptor 38 increased” value [4] was “more than 2 fold change”. For the same compound, the “expression of olfactory receptor 77 decreased” value [4] was “more than 2 fold change”, the “expression of olfactory receptor 520 increased” value [4] was “more than 2 fold change” and the “expression of olfactory receptor 878 increased” value [4] was “more than 2 fold change”. For the same compound, the “expression of olfactory receptor 1462 decreased” value [4] was “more than 2 fold change”, the “AKT phosphorylation, increase (change rate)” value [5] was 47% increase and the “CREB phosphorylation, increase (change rate)” value [6] was 29% increase. The “HSL phosphorylation, increase (change rate)” value [7] was 45% increase.
